One may read the inhibition as the relative decrease from the control value, in per cent. Usually IC50 stands for the concentration needed to halve the response being measured.

The target of assay [1] is Serine/threonine-protein kinase B-raf (Homo sapiens) (UniProt P15056). The experiment in a line: Inhibition of recombinant human full length GST-tagged BRAF expressed in baculovirus expression system at 1 uM by Z'LYTE assay relative to control.
The subject of a further assay is NCI-H3122. Nature of the assay: Antiproliferative activity against human NCI-H3122 cells after 48 hrs by MTT assay. Conditions: NCI-H3122, 48 h. Background: Formazan colour is commonly taken as a measure of viable cells.
For assay [2], the target named is Leukocyte tyrosine kinase receptor (Homo sapiens) (UniProt P29376). Nature of the assay: Inhibition of recombinant human GST-tagged LTK expressed in baculovirus expression system at 1 uM by Z'LYTE assay relative to control.
For another assay, the system named is HCC78. Nature of the assay: Antiproliferative activity against human HCC78 cells after 48 hrs by MTT assay. Conditions: HCC78, 48 h.
Assay [3] deals with Mast/stem cell growth factor receptor Kit (Homo sapiens) (UniProt P10721). Nature of the assay: Inhibition of KIT (unknown origin) at 1 uM by Z'LYTE assay relative to control.
Assay [4] concerns the target Platelet-derived growth factor receptor alpha (Homo sapiens) (UniProt P16234). The experiment in a line: Inhibition of recombinant human GST-tagged PDGFRalpha expressed in baculovirus expression system at 1 uM by Z'LYTE assay relative to control.
Assay [5] has as its target Proto-oncogene tyrosine-protein kinase ROS (Homo sapiens, UniProt P08922). The experiment in a line: Inhibition of recombinant human GST-tagged ROS1 expressed in baculovirus expression system by Z'LYTE assay.
For assay [6], the target named is Hepatocyte growth factor receptor (Homo sapiens) (UniProt P08581). Nature of the assay: Inhibition of recombinant human His-tagged MET expressed in mammalian expression system at 1 uM by Z'LYTE assay relative to control.
In assay [7] the target is Tyrosine-protein kinase JAK2 (Homo sapiens) (UniProt O60674). The experiment in a line: Inhibition of recombinant human GST-tagged JAK2 expressed in baculovirus expression system at 1 uM by Z'LYTE assay relative to control.
Assay [8] has as its target Mitogen-activated protein kinase 3 (Homo sapiens) (UniProt P27361). Nature of the assay: Inhibition of recombinant human GST-tagged full length MAPK3 expressed in Escherichia coli at 1 uM by Z'LYTE assay relative to control.
In assay [9] the target is Fibroblast growth factor receptor 1 (Homo sapiens) (UniProt P11362). Nature of the assay: Inhibition of recombinant human His-tagged FGFR1 expressed in baculovirus expression system at 1 uM by Z'LYTE assay relative to control.
The target in assay [10] is CDK2/Cyclin A2 (Homo sapiens) (UniProt P24941+P20248). The experiment in a line: Inhibition of recombinant human full length His-tagged CDK2/cyclin A expressed in baculovirus expression system at 1 uM by Z'LYTE assay relative to control.
In assay [11] the target is Insulin-like growth factor 1 receptor (Homo sapiens) (UniProt P08069). Nature of the assay: Inhibition of recombinant human His-tagged IGF1R expressed in baculovirus expression system at 1 uM by Z'LYTE assay relative to control.
In assay [12] the target is Tyrosine-protein kinase ABL1 (Homo sapiens) (UniProt P00519). The experiment in a line: Inhibition of recombinant human His-tagged ABL1 expressed in baculovirus expression system at 1 uM by Z'LYTE assay relative to control.
The target of assay [13] is Epidermal growth factor receptor (Homo sapiens) (UniProt P00533). The experiment in a line: Inhibition of recombinant human GST-tagged EGFR expressed in baculovirus expression system at 1 uM by Z'LYTE assay relative to control.
In assay [14] the target is ALK tyrosine kinase receptor (Homo sapiens, UniProt Q9UM73). The experiment in a line: Inhibition of recombinant human GST-tagged ALK expressed in baculovirus expression system by Z'LYTE assay.
Sequence of ALK tyrosine kinase receptor (Q9UM73 whole entry): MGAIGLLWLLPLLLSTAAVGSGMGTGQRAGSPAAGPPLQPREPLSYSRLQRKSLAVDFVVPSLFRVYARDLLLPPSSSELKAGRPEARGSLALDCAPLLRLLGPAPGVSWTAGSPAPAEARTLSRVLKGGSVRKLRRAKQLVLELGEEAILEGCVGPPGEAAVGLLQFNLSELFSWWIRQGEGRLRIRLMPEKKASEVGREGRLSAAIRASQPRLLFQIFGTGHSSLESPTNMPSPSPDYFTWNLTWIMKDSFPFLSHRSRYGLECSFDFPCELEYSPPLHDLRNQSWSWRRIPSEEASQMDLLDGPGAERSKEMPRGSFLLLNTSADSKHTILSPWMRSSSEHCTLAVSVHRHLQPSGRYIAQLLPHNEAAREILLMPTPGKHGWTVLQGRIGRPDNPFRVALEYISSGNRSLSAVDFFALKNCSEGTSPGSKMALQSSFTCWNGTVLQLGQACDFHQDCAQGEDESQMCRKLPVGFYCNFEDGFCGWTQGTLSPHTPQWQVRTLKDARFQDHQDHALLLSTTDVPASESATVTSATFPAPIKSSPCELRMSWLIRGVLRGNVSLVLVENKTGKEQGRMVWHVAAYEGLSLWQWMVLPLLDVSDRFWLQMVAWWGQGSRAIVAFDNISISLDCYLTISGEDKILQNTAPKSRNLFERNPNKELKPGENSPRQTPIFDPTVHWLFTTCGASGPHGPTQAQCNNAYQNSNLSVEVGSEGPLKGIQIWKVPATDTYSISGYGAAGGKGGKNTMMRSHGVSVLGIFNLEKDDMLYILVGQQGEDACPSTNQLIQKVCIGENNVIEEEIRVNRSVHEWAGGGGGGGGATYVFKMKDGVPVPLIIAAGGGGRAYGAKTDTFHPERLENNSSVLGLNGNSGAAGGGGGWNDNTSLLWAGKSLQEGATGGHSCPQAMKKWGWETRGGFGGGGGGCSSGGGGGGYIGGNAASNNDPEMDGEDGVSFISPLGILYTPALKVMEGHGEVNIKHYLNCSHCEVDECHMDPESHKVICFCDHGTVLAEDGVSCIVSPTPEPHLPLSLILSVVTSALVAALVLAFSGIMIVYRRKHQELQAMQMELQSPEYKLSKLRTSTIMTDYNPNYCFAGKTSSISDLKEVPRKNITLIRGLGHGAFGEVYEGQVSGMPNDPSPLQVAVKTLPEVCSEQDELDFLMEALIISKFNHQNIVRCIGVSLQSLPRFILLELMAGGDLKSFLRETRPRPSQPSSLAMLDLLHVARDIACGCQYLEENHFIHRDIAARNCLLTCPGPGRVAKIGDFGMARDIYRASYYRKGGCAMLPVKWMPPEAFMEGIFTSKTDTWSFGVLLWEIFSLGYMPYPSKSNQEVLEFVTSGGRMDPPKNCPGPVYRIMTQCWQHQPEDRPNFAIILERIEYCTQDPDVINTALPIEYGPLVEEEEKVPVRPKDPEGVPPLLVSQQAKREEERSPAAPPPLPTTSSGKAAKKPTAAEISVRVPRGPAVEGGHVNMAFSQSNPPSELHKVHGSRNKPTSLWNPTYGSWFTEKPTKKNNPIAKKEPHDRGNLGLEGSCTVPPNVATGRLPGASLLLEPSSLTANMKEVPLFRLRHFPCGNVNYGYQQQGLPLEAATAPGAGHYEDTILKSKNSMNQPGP

Sequence of Platelet-derived growth factor receptor alpha (Homo sapiens) (P16234 whole entry): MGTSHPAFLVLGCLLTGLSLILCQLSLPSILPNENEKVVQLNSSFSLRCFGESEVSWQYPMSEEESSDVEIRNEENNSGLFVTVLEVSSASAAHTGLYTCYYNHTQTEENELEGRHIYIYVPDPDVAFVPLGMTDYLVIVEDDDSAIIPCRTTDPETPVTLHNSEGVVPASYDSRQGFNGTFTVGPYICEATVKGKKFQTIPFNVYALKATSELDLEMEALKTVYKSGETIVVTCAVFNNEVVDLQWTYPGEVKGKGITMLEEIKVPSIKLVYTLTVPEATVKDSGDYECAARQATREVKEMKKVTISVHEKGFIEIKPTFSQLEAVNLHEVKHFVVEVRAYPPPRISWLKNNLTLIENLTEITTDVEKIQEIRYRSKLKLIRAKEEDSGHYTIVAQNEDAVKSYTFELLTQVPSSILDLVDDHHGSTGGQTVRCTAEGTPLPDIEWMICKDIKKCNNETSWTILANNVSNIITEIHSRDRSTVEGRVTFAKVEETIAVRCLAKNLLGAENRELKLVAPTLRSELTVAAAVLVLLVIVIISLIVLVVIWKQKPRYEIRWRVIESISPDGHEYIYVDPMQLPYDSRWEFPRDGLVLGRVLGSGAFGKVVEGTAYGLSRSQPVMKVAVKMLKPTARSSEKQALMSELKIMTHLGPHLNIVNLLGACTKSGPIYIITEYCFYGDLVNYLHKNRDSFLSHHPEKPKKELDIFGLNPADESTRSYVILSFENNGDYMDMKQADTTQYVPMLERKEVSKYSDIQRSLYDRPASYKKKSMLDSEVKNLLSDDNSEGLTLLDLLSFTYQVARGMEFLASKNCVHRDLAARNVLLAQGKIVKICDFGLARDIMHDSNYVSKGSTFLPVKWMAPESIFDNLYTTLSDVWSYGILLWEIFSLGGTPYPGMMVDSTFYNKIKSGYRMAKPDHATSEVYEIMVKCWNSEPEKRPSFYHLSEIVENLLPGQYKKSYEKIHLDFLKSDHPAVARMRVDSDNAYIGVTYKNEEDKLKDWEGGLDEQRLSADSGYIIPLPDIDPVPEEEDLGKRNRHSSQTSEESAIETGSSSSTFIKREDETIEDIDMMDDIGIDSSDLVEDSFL
Sequence of Epidermal growth factor receptor (Homo sapiens) (P00533 whole entry): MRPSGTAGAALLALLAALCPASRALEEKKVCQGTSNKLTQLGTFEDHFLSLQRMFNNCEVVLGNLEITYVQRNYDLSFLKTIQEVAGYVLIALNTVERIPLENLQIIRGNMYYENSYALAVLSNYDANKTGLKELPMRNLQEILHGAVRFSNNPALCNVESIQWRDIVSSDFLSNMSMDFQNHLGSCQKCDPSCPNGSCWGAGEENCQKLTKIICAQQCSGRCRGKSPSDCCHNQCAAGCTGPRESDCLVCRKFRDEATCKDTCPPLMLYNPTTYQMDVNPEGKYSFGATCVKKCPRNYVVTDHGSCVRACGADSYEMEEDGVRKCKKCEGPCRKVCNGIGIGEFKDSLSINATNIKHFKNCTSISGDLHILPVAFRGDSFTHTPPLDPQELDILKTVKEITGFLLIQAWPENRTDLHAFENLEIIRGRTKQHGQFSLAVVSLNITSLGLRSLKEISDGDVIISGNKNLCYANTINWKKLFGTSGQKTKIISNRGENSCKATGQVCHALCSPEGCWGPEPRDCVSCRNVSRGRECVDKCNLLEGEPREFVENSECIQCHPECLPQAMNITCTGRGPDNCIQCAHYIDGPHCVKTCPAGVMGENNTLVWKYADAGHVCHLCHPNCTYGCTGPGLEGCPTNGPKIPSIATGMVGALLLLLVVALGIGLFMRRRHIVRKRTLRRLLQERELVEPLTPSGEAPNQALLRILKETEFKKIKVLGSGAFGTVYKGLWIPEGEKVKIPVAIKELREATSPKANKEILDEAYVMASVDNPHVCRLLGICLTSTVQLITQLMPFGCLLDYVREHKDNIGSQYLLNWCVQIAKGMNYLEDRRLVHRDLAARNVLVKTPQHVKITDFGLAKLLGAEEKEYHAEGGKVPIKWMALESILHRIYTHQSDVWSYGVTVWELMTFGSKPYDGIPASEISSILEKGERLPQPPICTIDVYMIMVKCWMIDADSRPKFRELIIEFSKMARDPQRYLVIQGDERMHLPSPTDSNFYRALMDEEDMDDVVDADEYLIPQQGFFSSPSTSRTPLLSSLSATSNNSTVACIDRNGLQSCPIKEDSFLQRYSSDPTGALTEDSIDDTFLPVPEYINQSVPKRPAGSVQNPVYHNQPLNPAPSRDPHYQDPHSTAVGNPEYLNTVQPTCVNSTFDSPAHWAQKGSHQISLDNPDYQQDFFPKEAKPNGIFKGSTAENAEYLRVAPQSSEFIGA
Sequence of Tyrosine-protein kinase JAK2 (Homo sapiens) (O60674 whole entry): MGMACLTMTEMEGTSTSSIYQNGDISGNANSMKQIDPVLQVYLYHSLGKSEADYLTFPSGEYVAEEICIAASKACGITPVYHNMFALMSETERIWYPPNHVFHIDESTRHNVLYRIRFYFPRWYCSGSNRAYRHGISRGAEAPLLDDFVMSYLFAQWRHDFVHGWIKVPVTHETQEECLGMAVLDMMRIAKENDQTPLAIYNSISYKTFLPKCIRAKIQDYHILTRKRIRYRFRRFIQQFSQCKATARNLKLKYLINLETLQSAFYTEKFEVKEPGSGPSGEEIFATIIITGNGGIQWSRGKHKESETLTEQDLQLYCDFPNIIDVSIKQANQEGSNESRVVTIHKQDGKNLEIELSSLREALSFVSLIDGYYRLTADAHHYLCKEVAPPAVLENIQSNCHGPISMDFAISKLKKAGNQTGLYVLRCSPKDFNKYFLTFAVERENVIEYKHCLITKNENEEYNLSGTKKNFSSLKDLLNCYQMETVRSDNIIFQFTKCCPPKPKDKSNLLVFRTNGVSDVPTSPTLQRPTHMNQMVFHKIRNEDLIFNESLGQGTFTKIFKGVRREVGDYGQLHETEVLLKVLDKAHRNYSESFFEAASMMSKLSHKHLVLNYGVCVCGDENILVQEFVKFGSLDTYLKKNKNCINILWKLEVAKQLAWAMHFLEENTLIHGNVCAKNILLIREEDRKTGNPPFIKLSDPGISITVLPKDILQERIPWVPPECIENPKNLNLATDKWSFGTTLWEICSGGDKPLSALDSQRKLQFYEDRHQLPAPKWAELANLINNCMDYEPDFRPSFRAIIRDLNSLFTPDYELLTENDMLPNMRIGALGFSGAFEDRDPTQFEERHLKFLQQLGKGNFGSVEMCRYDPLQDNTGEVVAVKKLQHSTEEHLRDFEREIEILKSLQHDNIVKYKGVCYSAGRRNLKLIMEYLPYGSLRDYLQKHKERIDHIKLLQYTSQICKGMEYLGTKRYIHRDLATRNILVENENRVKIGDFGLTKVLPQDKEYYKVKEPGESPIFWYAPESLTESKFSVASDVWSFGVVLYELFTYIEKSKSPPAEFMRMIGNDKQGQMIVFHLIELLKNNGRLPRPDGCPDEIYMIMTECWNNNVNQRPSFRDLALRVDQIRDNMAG

On to `Cc1ccc(CNC(=O)c2cccc(C(C)Oc3ccnc(Nc4cnn(C5CCN(C)CC5)c4)c3)c2)cc1` (stereo unspecified), for which the inhibition is 15% in assay [1]; 9% in assay [2]; 2% in assay [3]; 6% in [4]; 3% in assay [6]; 12% in assay [7]. In addition, the inhibition in assay [8] came to 8%; in [9], 11%; in assay [10], 1%; in assay [11], 7%; in [12], 9%; in assay [13] it was 1%. In addition, the half-inhibitory concentration (IC50) was 8.9 µM in the assay on NCI-H3122, 8.1 µM with HCC78, 0.44 µM in assay [5] and 3.1 µM in [14].
